Experimental data published in patent US20250114313A1, “OLIGO-BENZAMIDE ANALOGS AND THEIR USE IN CANCER TREATMENT” (BOARD OF REGENTS, THE UNIVERSITY OF TEXAS SYSTEM, priority 2022, published 2025).
“Also recorded” adds a separate entry of the source. Read-outs that look alike come from different tables or passages of the source.

Legend:
[1] = molecular target: T1, ER Alpha-LBD (GST) (Homo sapiens, UniProt P03372); experiment: LanthaScreen TR-FRET ER alpha Coactivator Assay, antagonist mode; assay type: binding; conditions: 2 h incubation
T1 construct: 3.5 nM ER Alpha-LBD (GST); purchased life technologies A15885
T1 sequence (P03372 311-547 limits assumed): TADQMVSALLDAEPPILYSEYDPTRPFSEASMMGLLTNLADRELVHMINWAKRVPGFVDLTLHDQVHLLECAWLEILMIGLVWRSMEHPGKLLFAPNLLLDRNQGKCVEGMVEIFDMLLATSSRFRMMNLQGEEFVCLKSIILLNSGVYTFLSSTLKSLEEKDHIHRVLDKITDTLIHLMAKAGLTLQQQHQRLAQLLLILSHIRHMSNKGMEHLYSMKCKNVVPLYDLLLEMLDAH

[2] = earlier finding; cited from earlier work
[3] = tested on: ERα-positive breast cancer cells (MCF-7, ZR-75); conditions: therapy-sensitive and therapy-resistant ERα-positive breast cancers; inventors' previous work; read-out: IC50, block of ERα signaling and ERα-driven proliferation; cited from earlier work
[4] = tested on: ERα-positive breast cancer cells (MCF-7, ZR-75); experiment: MTT cell viability, ERα-positive breast cancer cells; assay type: cell-based, Human; conditions: MCF-7 and ZR-75, read-out: anti-proliferative IC50
Procedure: (§1) Cell viability assays: Cells were seeded in 96-well plates (2×10^3 cells/well) one day before the treatment. Cells were treated with varying concentrations of ERX-41 or ERX-11 analogs for 3-6 days. Then effects of ERX-41 or ERX-11 analogs on cell viability were measured in triplicate or sextuplicate with multiple biological replicates using the WST-1 (Promega), MTT as previously described^33 or CellTiter-Glo 2.0 (Promega) assays.

[5] = tested on: TNBC cells (SUM-159, MDA-MB-231); experiment: MTT cell viability, TNBC cells; assay type: cell-based, Human
Procedure: as §1

[6] = ERX-315 in syngeneic D2A1 tumor model, organ evaluation; assay type: in vivo, mice; conditions: syngeneic D2A1 tumors
[7] = tested on: BC xenografts expressing the Y537S ERα mutant (ZR75, MCF7); experiment: ERX-315 in therapy resistant BC xenografts (Y537S ERα mutant ZR75, MCF7); assay type: in vivo, mouse
[8] = tested on: ovarian cancer cells and breast cancer cells; experiment: ERX-315 in cancer cell lines; assay type: cell-based
[9] = tested on: TNBC; experiment: ER stress, cell death and lysosomes in TNBC (discussion, no method); assay type: cell-based
[10] = molecular target: T2, LAL lipase activity (Homo sapiens, UniProt P38571); experiment: Lipase activity assay (4-MUP), SUM-159 cell lysate; assay type: biochemical
T2 construct: heat stability of LAL or vinculin protein in SUM-159 cells; endogenous in cells; host or cells: SUM-159
T2 sequence (P38571 77-399): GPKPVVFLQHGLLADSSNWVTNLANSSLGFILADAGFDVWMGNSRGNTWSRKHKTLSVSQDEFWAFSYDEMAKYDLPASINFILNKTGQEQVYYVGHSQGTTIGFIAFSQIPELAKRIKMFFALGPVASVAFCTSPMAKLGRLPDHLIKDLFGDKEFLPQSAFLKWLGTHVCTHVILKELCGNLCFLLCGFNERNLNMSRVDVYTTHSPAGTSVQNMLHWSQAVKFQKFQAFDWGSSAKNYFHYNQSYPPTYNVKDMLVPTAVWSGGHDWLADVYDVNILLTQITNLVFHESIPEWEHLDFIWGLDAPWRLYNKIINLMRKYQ
Procedure: Lipase activity assay: Lipase activity assays were performed as described previously (Dairaku, et al)^37. Briefly, a 0.345 mM substrate solution was prepared from 1.2 mL of 13.3 mM 4-MUP and 42 mL of 100 mM sodium acetate buffer pH 4.0, 1.0% (v/v) Triton X-100 and 3.0 mL of 0.5% (w/v) cardiolipin. For the enzyme reaction, 50 μL of the substrate in buffer solution, 40 μL of diluted cell lysate and 10 μL of DMSO or 30 μM Lalistat2 or 30 μM ERX-41 were combined in a black 96-well plate. The plates were sealed with an adhesive aluminum film and incubated in a 37° C. incubator for 1 h. The reactions were terminated using 200 μL of 150 mM EDTA at pH 11.5. The fluorescence of the plates were read immediately with synergy H1 fluorescence microplate reader (BioTek) using a 365-nm excitation filter and a 450-nm emission filter. The LIPA lipase activity was calculated by subtracting the enzymatic activity of the inhibited (with Lalistat2) reaction from that of the uninhibited (without Lalistat2) reaction.

[11] = tested on: SUM-159 cells with LIPA KO; experiment: UPR induction and protein synthesis in SUM-159 cells with LIPA KO (RNA-seq, RT-qPCR, western); assay type: cell-based, Human; conditions: known ER stress inducers
Procedure: Western blotting: Whole cell lysates from breast cancer cells were prepared with 2× sample buffer (60 mM Tris-HCl, pH 6.8, 2% sodium dodecyl sulfate, 10% glycerol), and before loading mixed with loading buffer (5% 2-mercaptoethanol, 0.1% bromophenol blue) and boiled for denaturation, as previously described.^33 Proteins were separated by SDS-PAGE and subjected to Western analysis using antibodies. To detect nascent translated proteins, puromycin (final concentration 10 μg/mL) was added into cell plates 30 minutes before harvesting cells. Then samples were subjected to the Western blotting. Nascent proteins were detected by anti-puromycin antibody.
Real-time quantitative PCR (RT-qPCR): Total RNA was prepared from breast cancer cells using the RNeasy Mini Kit (Qiagen) according to the manufacturer protocols. Subsequently, total RNAs were reverse transcribed into cDNA using iScript Reverse Transcription Supermix (Bio-rad) and by using SYBR Green on an Illumina Real-Time PCR system.
RNA-sequencing: mRNA-seq sequencing library construction was performed using TruSeq RNA Library Preparation Kit (Illumina) according to the manufacturer's instructions. FASTQ reads from Genomics Core at UTSW were mapped to Human GRCh38 genome using HiSAT2 (RRID:SCR_015530). Differential expression analysis is performed using DEseq2 (RRID:SCR_015687). Abundances of transcripts are calculated using ballgown (Frazee et al. 2014). The values of Fragments Per Kilobase of transcript per Million mapped reads (FPKM) were used for Gene Set Enrichment Analysis (GSEA). GSEA was performed by using the GSEA software (RRID:SCR_005724) and C5 ontology gene sets (14765 gene sets in total). mRNA-seq data from this study are available from NCBI GEO under accession #GSE168800.

## CC(C)COc1cc(C(N)=O)ccc1NC(=O)c1ccc(NC(=O)c2ccc([N+](=O)[O-])c(OCCO)c2)c(OCC(C)C)c1 [ERX-11, reference compound]
[1]
  interaction with ERα LBD: interact with ERG LBD
[2]
  oral bioavailability: orally bioavailable
[3]
  IC50: 200 to 500 nM
[4]
  IC50: 200 to 500 nM
[5]; MTT, SUM-159 and MDA-MB-231, read-out: IC50 against TNBC cells
  IC50: > 10000 nM
[5]; TNBC cells (lack expression of ERα)
  anti-tumor activity in TNBC cells: did not show anti-tumor activity

## CC(C)COc1cc(C(=O)Nc2ccc(C(=O)N[C@H]3CC[C@H](C(=O)Nc4cnc5ccccc5c4)CC3)cc2OCC(C)C)ccc1NC(=O)c1ccc(F)c(OCCO)c1 [ERX-315]
[6]
  immunogenicity, immune infiltrates in spleen, lymph nodes, kidney, liver: not immunogenic
[7]; histologic evaluation
  Ki67 proliferation indices of tumors: dramatically decreased K167 proliferation indices
[7]; oral, captisol formulation, listed as TK315
  activity against therapy resistant BC xenografts: decreased the growth and tumor weight; also recorded: potent activity
[7]; oral, listed as TK315
  mouse liver or body weight: No change in body weight; also recorded: no effect on mouse liver or body weight
[8]; FIG. 17
  effectiveness in cell culture models of cancer: effective in each cell line tested
[8]; read-out: IC50 against ovarian cancer cells and breast cancer cells
  IC50: 10 to 50 nM

## O=C(Oc1nsnc1N1CCCCC1)N1CCCCC1 [Lalistat 2]
[9]
  induction of ER stress or cell death in TNBC: does not induce ER stress or cell death in TNBC
[10]; LIPA-KO cells
  lipase function (other lipases) in LIPA-KO cells: lack of inhibitory activity on lipase function
[10]; SUM-159 cells, 30 μM
  lipase activity of LIPA: attenuated lipase activity

## C[C@]12CC[C@@H]3c4ccc(O)cc4C[C@@H](CCCCCCCCC[S+]([O-])CCCC(F)(F)C(F)(F)F)[C@H]3[C@@H]1CC[C@@H]2O (stereo partly drawn) [fulvestrant]
[1]
  interaction with ERα LBD: interact with ERG LBD

## C/C=C(/C)C(=O)O[C@H]1C(C)=C2[C@H]([C@@H]1OC(=O)CCCCCCC)[C@@](C)(OC(C)=O)C[C@H](OC(=O)CCC)[C@@]1(O)[C@H]2OC(=O)[C@@]1(C)O [thapsigargin, reference compound]
[11]
  inducibility of UPR genes in LIPA KO cells: preserved

## tunicamycin [reference compound]
[11]
  inducibility of UPR genes in LIPA KO cells: preserved
